IC50 data for 15 compounds are collected here from US8765736B2, “Benzenesulfonamide compounds and the use thereof” (Purdue Pharma L.P., priority 2007, dated 2014).

For assay [1], the target named is T1, N-type calcium channel (NTCC) (Homo sapiens, UniProt Q00975).
T1 construct: endogenous in cells; host or cells: IMR32 cells (ATCC), differentiated with dibutyryl cAMP and bromodeoxyuridine
In words: FLIPR calcium mobilization assay for N-type calcium channel. The assay is classed as cell-based. The following applies: calcium mobilization in vitro assay; differentiated IMR32 cells, 5 μM nitrendipine, 90 mM KCl. The procedure: Cell maintenance and differentiation. Unless noted otherwise, cell culture reagents were purchased from Mediatech of Herndon, Md. IMR32 cells (American Type Culture Collection, ATCC, Manassas, Va.) were routinely cultured in growth medium consisting of minimum essential medium containing 10% fetal bovine serum (FBS, Hyclone, Logan, Utah), 100 U/mL penicillin, 100 μg/mL streptomycin, 2 mM L-glutamine, 1 mM sodium pyruvate, and 1×MEM non-essential amino acids. 80-90% confluent flasks of cells were differentiated using the following differentiation medium: Growth medium plus 1 mM dibutyryl cyclic AMP (Sigma, St. Louis, Mo.), and 2.5 μM bromodeoxyuridine (Sigma). Cells were differentiated for 8 days by replacing differentiation medium every 2-3 days.
FLIPR Calcium Mobilization Assay for N-type Calcium Channel. One day prior to performing this assay, differentiated IMR32 cells were treated with 1× CellStripper, and seeded on poly-D-lysine-coated 96-well clear-bottom black plates (Becton Dickinson, Franklin Lakes, N.J.) at 200,000 cells/well. On the day of the assay, the cell plates were washed with IMR32 buffer (127 mM NaCl, 1 mM KCl, 2 mM MgCl2, 700 μM NaH2PO4, 5 mM CaCl2, 5 mM NaHCO3, 8 mM HEPES, 10 mM glucose, pH 7.4), then pre-stimulated with KCl and loaded as follows: 0.05 mL of IMR32 buffer, 0.05 mL of each compound tested diluted in IMR32 buffer containing 20 μM nitrendipine (Sigma), and 0.1 mL KCl dissolved in IMR32 buffer, plus Fluo-4 were added (3 μM final concentration, Molecular Probes, Eugene, Oreg.). Final test compound concentrations ranged from about 846 pM to about 17 μM, final nitrendipine concentration was 5 μM, and final KCl concentration was 90 mM. After 1 hour, the cells were washed twice with 0.05 mL of each compound tested in nitrendipine-containing IMR32 buffer (no KCl or Fluo-4), and then replaced with 0.1 mL of each compound tested in nitrendipine-containing IMR32 buffer. Plates were then transferred to a Fluorimetric Imaging Plate Reader (FLIPR^96, Molecular Devices, Inc., Sunnyvale, Calif.) for assay. The FLIPR measured basal Fluo-4 fluorescence for 315 seconds (i.e., 5 minutes and 15 seconds), then added 0.1 mL KCl agonist dissolved in IMR32 buffer and measured fluorescence for another 45 seconds. Final test compound concentrations on the cells after FLIPR read ranged from about 846 pM to about 17 μM, final nitrendipine concentration was 5 μM, and final KCl concentration was 90 mM. Data were collected over the entire time course and analyzed using Excel, Graph Pad Prism (version 3.02, Graph Pad, San Diego, Calif.), or an in-house non-linear regression analysis software.
A general note: Calcium assays in cells follow changes in intracellular calcium, usually with a dye or a luminescent sensor.

The target of assay [2] is T2, recombinant rat L-type calcium channel (LTCC) subunits (α1c, α2δ, and β1) (Rattus norvegicus, UniProt P22002).
T2 construct: expressed in transfected cells; α1c in pcDNA6.2DEST, β1 in pcDNA3.2DEST, α2δ in pcDNA3.1-Zeo
The experiment in a line: FLIPR calcium mobilization assay for L-type calcium channel. The assay is classed as cell-based. The settings on record: calcium mobilization in vitro assay; HEK293 cells stably expressing rat LTCC subunits, 90 mM KCl. On the procedure:
Recombinant human embryonal kidney cells (HEK293, ATCC) stably transfected with either N-type calcium channel (NTCC) subunits (α1b (SEQ ID NOs: 13 to 15), α2δ (SEQ ID Nos: 16, 17), and β3 (SEQ ID NOs:18 to 20)) or L-type calcium channel (LTCC) subunits (α1c (SEQ ID NOs:21, 22), α2δ, and β1 (SEQ ID NOs:23 to 25)) were routinely cultured in growth medium consisting of Dulbecco's Modified Eagles Medium containing 10% FBS, 100 U/mL penicillin, 100 μg/mL streptomycin, 4 mM L-glutamine, 500 μg/mL geneticin (G418), 20 μg/mL Blasticidin S (InVivogen, San Diego, Calif.) and 500 μg/mL zeocin (InVivogen).
FLIPR Calcium Mobilization Assay for L-type Calcium Channel. One day prior to performing this assay, HEK293 cells stably expressing recombinant rat L-type calcium channel (LTCC) subunits (α1c, α2δ, and β1) were trypsinized, then seeded on poly-D-lysine-coated 96-well clear-bottom black plates (Becton Dickinson, Franklin Lakes, N.J.) at 75,000 cells/well. On the day of the assay, the plates were washed with LTCC wash buffer (127 mM NaCl, 2 mM MgCl2, 700 μM NaH2PO4, 5 mM CaCl2, 5 mM NaHCO3, 8 mM HEPES, 10 mM glucose, pH 7.4), then loaded with 0.1 mL of LTCC wash buffer containing Fluo-4 (3 μM final concentration, Molecular Probes, Eugene, Oreg.). After 1 hour, the cells were washed with 0.1 mL LTCC wash buffer and resuspended in 0.05 mL LTCC assay buffer (same composition as LTCC wash buffer). Plates were then transferred to a FLIPR^96 for assay. The FLIPR measured basal Fluo-4 fluorescence for 15 seconds, then added 0.05 mL of each compound tested diluted in LTCC assay buffer at final concentrations ranging from about 846 pM to about […]. Fluo-4 fluorescence was then measured for 5 minutes. 0.1 mL KCl agonist dissolved in LTCC assay buffer was then added to the cells to produce a final concentration of 90 mM KCl, and fluorescence was measured for another 45 seconds. Data were collected over the entire time course and analyzed using Excel, Graph Pad Prism, or an in-house regression analysis software.
L-type Recombinant Cell Line Development. L-type calcium channel expressing HEK-293 cells were created in two stages. Stage 1 was created as follows. The rat α1c, and β1 cDNA expression constructs (2.5 μg each) were co-transfected into human embryonic kidney (HEK-293) cells by Lipofectamine Plus reagent (Invitrogen), as per manufacturer's instructions. 24 hours later, cells were split in limiting dilution into multiple 96-well plates in selection media containing 20 μg/mL blasticidin and 500 μg/mL geneticin, and incubated for 3 weeks at 37° C., 5% CO2, 95% humidity. Plates containing ≦1 clone per well were cultured until wells positive for single clones were confluent. Individual clones were then arrayed into columns of a destination 96-well plate, and partly split into 6-well plates for culture maintenance. Array plates were washed once with LTCC wash (or assay) buffer and cells loaded for 1 hour with 0.1 mL of LTCC buffer containing Fluo-4 (3 μM final concentration, Molecular Probes). Then they were washed twice with 0.1 mL of LTCC buffer, and replaced with 0.1 mL LTCC buffer. Plates were then transferred to a FLIPR^96 for assay. The FLIPR measured basal Fluo-4 fluorescence for 315 seconds, then added 0.1 mL KCl agonist dissolved in LTCC buffer and measured fluorescence for another 45 seconds. Final KCl concentration was 90 mM. Data were collected over the entire time course and analyzed using Excel, Graph Pad Prism, or Activity Base software. The clone with the greatest signal-to-noise ratio, best stability of response with passage number, and best adhesion to PDL precoated plates (Becton Dickinson) was expanded, characterized and used for stage 2 cell line development.
Stage 2 of L-type cell line development was carried out as follows. The rat α2δ cDNA expression construct (5 μg each) was transfected into the stage 1 L-type clonal cell line by Lipofectamine Plus reagent (Invitrogen), as per manufacturer's instructions. […]

By IC50 is commonly meant the midpoint of a concentration-inhibition curve.

T1 sequence (Q00975 whole entry): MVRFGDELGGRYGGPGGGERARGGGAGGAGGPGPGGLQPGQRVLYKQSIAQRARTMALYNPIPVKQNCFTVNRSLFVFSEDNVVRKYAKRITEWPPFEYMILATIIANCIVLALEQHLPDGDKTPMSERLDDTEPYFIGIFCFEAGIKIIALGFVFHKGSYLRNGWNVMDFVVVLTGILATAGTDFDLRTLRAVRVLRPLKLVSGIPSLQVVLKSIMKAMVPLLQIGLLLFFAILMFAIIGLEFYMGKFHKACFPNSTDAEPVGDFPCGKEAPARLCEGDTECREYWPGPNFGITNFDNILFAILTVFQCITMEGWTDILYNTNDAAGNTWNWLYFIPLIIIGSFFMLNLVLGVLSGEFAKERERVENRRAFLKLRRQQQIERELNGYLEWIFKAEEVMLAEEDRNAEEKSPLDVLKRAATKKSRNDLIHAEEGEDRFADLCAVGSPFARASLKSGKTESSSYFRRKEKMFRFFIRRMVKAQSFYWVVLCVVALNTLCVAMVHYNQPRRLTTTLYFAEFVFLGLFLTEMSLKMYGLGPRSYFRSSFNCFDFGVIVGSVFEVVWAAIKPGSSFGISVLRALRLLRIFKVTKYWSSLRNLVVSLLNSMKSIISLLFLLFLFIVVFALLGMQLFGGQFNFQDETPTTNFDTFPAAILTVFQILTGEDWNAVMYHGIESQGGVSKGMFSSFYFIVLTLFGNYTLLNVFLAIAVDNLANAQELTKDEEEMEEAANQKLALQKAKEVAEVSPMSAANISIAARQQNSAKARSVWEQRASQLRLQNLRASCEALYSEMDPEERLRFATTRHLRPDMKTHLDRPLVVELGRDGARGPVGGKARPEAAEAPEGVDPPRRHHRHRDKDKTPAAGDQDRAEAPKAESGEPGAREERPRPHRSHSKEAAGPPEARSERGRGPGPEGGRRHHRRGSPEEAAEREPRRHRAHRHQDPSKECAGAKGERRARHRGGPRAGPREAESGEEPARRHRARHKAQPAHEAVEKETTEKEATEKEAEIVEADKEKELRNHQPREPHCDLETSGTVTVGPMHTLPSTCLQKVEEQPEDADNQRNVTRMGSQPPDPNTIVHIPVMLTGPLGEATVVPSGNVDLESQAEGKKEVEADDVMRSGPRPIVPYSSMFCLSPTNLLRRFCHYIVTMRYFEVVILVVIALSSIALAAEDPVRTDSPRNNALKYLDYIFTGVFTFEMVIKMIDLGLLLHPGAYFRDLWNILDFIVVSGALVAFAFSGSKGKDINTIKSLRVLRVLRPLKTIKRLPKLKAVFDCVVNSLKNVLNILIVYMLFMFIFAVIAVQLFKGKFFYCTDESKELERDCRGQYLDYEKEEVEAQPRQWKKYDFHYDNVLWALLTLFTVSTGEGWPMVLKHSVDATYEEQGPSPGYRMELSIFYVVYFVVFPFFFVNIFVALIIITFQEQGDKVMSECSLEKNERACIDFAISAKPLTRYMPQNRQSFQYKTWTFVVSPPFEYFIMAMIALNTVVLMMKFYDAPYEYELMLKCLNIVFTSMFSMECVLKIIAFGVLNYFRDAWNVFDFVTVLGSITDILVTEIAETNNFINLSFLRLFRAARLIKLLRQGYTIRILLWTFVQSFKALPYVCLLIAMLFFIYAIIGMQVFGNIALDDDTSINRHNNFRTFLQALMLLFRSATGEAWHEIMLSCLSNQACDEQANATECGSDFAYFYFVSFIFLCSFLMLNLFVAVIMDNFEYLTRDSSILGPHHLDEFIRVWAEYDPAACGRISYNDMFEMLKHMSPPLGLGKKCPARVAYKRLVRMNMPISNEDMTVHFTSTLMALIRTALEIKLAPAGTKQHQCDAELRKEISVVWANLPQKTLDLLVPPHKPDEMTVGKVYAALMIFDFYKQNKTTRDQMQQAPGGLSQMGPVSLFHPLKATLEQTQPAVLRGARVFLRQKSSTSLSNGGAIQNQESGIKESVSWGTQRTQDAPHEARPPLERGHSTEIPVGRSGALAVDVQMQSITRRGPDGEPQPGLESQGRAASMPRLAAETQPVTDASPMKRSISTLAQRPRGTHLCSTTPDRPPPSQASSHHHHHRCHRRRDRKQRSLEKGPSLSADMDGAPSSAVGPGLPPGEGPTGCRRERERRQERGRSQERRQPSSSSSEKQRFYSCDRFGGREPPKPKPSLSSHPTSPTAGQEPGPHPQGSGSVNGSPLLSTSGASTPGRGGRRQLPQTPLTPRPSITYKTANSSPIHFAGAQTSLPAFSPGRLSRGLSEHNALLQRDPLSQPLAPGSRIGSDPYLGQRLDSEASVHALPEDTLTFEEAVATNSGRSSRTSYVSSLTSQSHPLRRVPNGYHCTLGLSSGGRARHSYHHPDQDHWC
T1 sequence (P54289 25-956 partner limits assumed): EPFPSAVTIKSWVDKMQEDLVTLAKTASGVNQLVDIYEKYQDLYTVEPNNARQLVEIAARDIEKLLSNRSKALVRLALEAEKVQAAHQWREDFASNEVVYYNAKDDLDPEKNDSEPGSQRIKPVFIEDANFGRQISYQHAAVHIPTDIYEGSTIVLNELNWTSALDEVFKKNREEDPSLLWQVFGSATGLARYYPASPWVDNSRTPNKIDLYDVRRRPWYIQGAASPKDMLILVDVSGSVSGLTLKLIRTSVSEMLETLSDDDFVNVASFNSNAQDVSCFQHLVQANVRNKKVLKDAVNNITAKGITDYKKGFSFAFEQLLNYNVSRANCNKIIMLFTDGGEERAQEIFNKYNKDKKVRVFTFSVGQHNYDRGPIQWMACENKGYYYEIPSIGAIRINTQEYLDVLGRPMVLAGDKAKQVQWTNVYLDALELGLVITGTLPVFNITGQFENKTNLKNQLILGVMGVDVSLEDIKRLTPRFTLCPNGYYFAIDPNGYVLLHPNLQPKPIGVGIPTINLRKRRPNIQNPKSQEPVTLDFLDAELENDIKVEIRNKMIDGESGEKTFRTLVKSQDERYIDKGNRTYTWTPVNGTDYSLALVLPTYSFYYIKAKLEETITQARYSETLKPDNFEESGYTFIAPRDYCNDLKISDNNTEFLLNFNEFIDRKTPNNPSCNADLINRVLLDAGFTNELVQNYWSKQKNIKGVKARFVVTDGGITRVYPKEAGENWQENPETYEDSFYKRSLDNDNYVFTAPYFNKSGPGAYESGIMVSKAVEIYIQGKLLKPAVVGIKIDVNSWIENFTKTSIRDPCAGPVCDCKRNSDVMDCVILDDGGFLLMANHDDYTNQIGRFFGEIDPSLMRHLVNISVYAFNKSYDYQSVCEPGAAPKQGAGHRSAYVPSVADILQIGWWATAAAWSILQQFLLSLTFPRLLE
T1 sequence (P54289 957-1103 partner limits assumed): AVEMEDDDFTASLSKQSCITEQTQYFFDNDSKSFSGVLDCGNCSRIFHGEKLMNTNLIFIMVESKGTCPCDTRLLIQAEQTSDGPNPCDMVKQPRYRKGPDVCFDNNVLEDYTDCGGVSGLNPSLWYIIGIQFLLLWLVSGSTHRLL
T1 sequence (P54284 whole entry partner): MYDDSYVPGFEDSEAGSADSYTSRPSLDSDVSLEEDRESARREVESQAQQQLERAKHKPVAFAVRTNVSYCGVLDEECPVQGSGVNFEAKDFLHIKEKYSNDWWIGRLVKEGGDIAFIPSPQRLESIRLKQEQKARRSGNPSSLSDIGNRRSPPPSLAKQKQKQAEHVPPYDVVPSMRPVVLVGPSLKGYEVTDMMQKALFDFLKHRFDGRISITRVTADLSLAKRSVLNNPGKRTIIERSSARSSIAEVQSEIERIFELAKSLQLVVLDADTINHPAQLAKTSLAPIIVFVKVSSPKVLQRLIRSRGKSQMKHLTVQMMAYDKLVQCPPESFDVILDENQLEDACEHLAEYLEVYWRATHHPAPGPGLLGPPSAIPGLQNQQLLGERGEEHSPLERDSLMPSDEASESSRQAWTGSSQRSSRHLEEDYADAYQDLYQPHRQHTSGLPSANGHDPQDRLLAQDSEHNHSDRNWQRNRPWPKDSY

`CCOC(=O)C(C)N1CCC(N(C(C)C)S(=O)(=O)c2cccc(C(F)(F)F)c2)CC1` (stereo not drawn) [Compound 8a, 2-[4-[Isopropyl-(3-trifluoromethyl-benzenesulfonyl)amino]piperidin-1-yl}propionic acid ethyl ester]: the IC50 in assay [1] was 1010 nM.
Consider `CCOC(=O)C(C)(C)N1CCC(N(C(C)C)S(=O)(=O)c2cccc(C(F)(F)F)c2)CC1` [Compound 8b, 2-{4-[Isopropyl-(3-trifluoromethyl-benzenesulfonyl)amino]piperidin-1-yl}-2-methylpropionic acid ethyl ester], for which the IC50 in assay [1] is 620 nM; in assay [2], above 20000 nM.
The corresponding values for `O=C(CN1CCC(N(C2CC2)S(=O)(=O)c2cccc(C(F)(F)F)c2)CC1)Oc1ccc(Cl)cc1` [Compound 8c, {-4-[Cyclopropyl-(3-trifluoromethyl-benzenesulfonyl)amino]piperidin-1-yl}acetic acid 4-chlorophenyl ester] are 600 nM and above 20000 nM.
Take `COC(=O)c1ccccc1N1CCC(N(C2CC2)S(=O)(=O)c2cccc(C(F)(F)F)c2)CC1` [Compound 10a, 2-{4-[Cyclopropyl-(3-trifluoromethyl-benzenesulfonyl)amino]piperidin-1-yl}benzoic acid methyl ester]: the values for the 50% inhibitory concentration (IC50) in assay [1] and in assay [2] were 900 nM and above 20000 nM, respectively.
On to `CCOC(=O)c1cccnc1N1CCC(N(C2CC2)S(=O)(=O)c2cccc(C(F)(F)F)c2)CC1` [Compound 10b, 4-[Cyclopropyl-(3-trifluoromethyl-benzenesulfonyl)amino]-3,4,5,6-tetrahydro-2H-[1,2′]-bipyridinyl-3′-carboxylic acid ethyl ester], for which the IC50 in assay [1] was found to be 1440 nM.
`CCOC(=O)c1cc(F)cc(N2CCC(N(C3CC3)S(=O)(=O)c3cccc(C(F)(F)F)c3)CC2)c1` [Compound 10c, 3-{-4-[Cyclopropyl-(3-trifluoromethyl-benzenesulfonyl)amino]piperidin-1-yl}-5-fluorobenzoic acid ethyl ester]: the IC50 in assay [1] stood at 1070 nM.
`CCOC(=O)c1ccc(N2CCC(N(C3CC3)S(=O)(=O)c3cccc(C(F)(F)F)c3)CC2)cc1` [Compound 10d, 4-{-4-[Cyclopropyl-(3-trifluoromethyl-benzenesulfonyl)amino]piperidin-1-yl}benzoic acid ethyl ester]: in assay [1], the IC50 was 1310 nM.
For the compound `O=S(=O)(c1cccc(C(F)(F)F)c1)N(C1CC1)C1CCN(c2cc(C(F)(F)F)cc(C(F)(F)F)c2)CC1` [Compound 10e, N-[1-(3,5-Bis-(trifluoromethyl)phenyl)piperidin-1-yl]-N-cyclopropyl-3-trifluoromethylbenzenesulfonamide], the IC50 in assay [1] was 6270 nM.
Take `O=C(NCCN1CCC(N(C2CC2)S(=O)(=O)c2cccc(C(F)(F)F)c2)CC1)c1ccc(F)cc1` [Compound 14a, N-(2-{-4-[Cyclopropyl-(3-trifluoromethylbenzenesulfonyl)amino]piperidin-1-yl}ethyl)-4-fluorobenzamide]: the IC50 in assay [1] amounted to 380 nM; in assay [2], 6740 nM.
On to `O=C(NCCN1CCC(N(C2CC2)S(=O)(=O)c2cccc(C(F)(F)F)c2)CC1)c1cc(C(F)(F)F)cc(C(F)(F)F)c1` [Compound 14b, N-(2-{4-[Cyclopropyl-(3-trifluoromethylbenzenesulfonyl)amino]piperidin-1-yl}ethyl)-3,5-bis(trifluoromethyl)phenylbenzamide], for which, in assay [1], the IC50 was determined as 1130 nM.
On to `CC(C)N(C1CCN(CCC(=O)N2CCCCC2)CC1)S(=O)(=O)c1cccc(C(F)(F)F)c1` [Compound 18, N-Isopropyl-N-[1-(3-oxo-3-piperidin-1-yl-propyl)-piperidin-4-yl]-3-trifluoromethyl-benzenesulfonamide], for which the figures for the IC50 in assay [1] and in assay [2] were 770 nM and above 20000 nM, respectively.
On to `CC(C)(C(=O)Nc1ccc(F)cc1Cl)N1CCC(N(C2CC2)S(=O)(=O)c2cccc(C(F)(F)F)c2)CC1` [Compound 21a, N-(2-Chloro-4-fluorophenyl)-2-{-4-[cyclopropyl-(3-trifluoromethyl-benzenesulfonyl)-amino]-piperidin-1-yl}-isobutyramide], for which the IC50 in assay [1] was 1600 nM.
Take `CC(C)(C(=O)Nc1ccc(F)cc1)N1CCC(N(C2CC2)S(=O)(=O)c2cccc(C(F)(F)F)c2)CC1` [Compound 21b, 2-{-4-[Cyclopropyl-(3-trifluoromethyl-benzenesulfonyl)-amino]-piperidin-1-yl}-N-(4-fluoro-phenyl)-isobutyramide]: the values for the IC50 in assay [1] and in assay [2] were 600 nM and above 20000 nM, respectively.
Turning to `CC(C)N(C1CCN(CC(=O)N2CCCC2)CC1)S(=O)(=O)c1cccc(C(F)(F)F)c1` [Compound 31b, N-Isopropyl-N-[1-(2-oxo-2-pyrrolidin-1-yl-ethyl)-piperidin-4-yl]-3-trifluoromethyl-benzenesulfonamide], the IC50 in assay [1] was determined as 1610 nM.
On the same count and under the same terms, with `CC(C)N(C1CCN(CC(=O)NC2CCOC2)CC1)S(=O)(=O)c1cccc(C(F)(F)F)c1` (stereo not drawn) [Compound 31e, 2-{4-[Isopropyl-(3-trifluoromethyl-benzenesulfonyl)-amino]-piperidin-1-yl}-N-(tetrahydrofuran-3-yl)-acetamide] the figure was 3200 nM.
